Earlier results in patent US8592424B2, “Topical regional neuro-affective therapy” (Afgin Pharma LLC, priority 2008, dated 2013).
Where a name gives a salt, the structure may show the parent alone.

What was measured:
D4 dopamine receptor = D4 dopamine receptor (Homo sapiens, UniProt P21917); conditions: in vitro tests
serotonin receptors = conditions: in vitro tests
D3 dopamine receptor = D3 dopamine receptor (Homo sapiens, UniProt P35462); conditions: in vitro tests
D2 dopamine receptor = D2 dopamine receptor (Homo sapiens, UniProt P14416); conditions: in vitro tests
D2 dopamine receptor, sequence (P14416 whole entry): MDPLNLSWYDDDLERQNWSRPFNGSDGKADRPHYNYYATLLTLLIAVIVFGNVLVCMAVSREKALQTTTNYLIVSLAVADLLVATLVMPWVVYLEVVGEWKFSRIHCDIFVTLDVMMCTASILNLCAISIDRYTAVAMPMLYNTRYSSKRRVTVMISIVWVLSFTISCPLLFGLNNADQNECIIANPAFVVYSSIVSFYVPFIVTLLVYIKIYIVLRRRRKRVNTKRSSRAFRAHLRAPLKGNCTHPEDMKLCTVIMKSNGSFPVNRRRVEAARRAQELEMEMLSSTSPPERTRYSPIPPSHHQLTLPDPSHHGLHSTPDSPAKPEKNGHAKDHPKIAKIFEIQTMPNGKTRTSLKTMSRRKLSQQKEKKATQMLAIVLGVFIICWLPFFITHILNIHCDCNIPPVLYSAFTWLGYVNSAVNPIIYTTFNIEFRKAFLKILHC

dopamine D1 receptor = dopamine D1 receptor (Homo sapiens, UniProt P21728); conditions: in vitro tests
dopamine D1 receptor, sequence (P21728 whole entry): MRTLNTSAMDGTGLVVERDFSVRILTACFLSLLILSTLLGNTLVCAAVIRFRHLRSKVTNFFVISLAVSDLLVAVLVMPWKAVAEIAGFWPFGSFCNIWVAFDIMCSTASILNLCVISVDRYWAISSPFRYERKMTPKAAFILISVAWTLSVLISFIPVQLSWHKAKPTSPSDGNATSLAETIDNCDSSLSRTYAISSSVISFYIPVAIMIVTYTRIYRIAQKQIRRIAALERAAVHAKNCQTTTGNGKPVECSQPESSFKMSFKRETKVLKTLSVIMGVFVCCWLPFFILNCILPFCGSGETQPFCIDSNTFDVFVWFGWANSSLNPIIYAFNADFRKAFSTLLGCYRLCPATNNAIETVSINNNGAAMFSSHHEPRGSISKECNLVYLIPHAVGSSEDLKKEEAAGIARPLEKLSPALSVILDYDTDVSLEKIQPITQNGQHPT

[1] = tested on: patients, some with impotence with erectile dysfunction; conditions: apomorphine injections, observed and reported
[2] = tested on: patients with advanced Parkinson's disease, "off periods"
[3] = tested on: alpha-adrenergic receptors; conditions: in vitro tests; some alpha-adrenergic receptors
[4] = reported clinical trials, despite using Tigan

D4 dopamine receptor, sequence (P21917 whole entry): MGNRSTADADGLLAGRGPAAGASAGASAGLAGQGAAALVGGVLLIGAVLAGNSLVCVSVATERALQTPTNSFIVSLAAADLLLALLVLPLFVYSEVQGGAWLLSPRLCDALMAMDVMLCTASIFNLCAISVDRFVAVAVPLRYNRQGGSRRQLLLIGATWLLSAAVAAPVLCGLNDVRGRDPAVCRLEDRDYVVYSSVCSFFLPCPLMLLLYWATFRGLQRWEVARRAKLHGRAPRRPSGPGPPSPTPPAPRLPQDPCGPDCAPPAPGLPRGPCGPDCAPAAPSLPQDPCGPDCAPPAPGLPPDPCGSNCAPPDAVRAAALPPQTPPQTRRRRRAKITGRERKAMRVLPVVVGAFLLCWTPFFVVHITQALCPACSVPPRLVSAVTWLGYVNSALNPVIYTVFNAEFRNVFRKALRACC
D3 dopamine receptor, sequence (P35462 whole entry): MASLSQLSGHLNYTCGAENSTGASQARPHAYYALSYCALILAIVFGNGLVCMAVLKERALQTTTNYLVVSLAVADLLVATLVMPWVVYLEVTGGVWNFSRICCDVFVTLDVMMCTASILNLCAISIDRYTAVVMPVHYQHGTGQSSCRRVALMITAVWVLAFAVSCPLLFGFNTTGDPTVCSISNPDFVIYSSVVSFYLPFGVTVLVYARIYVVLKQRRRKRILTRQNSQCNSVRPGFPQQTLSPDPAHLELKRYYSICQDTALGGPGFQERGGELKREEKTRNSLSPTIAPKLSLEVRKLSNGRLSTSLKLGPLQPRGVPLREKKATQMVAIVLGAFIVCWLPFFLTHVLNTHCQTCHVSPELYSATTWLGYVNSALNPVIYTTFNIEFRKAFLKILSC

Row | water solubility | SMILES | solubility in water (at 80 degrees Celsius) | affinity (D4 dopamine receptor) | affinity (serotonin receptors) | affinity (D3 dopamine receptor) | affinity (D2 dopamine receptor) | affinity (dopamine D1 receptor) | effect on sexual function [1] | other commonly reported adverse events in clinical trials ([2]; oral and injectible forms) | patients experiencing nausea [2, 4] [%] | patients experiencing vomiting [2, 4] [%] | time to take effect ([2]; subcutaneous injection, reported) [min] | affinity [3]
1 | high | c1cnc2cc3c(cc2n1)[C@@H]1CNC[C@H]3C1 [varenicline] | – | – | – | – | – | – | – | – | – | – | – | –
2 | – | CN1CCc2cccc3c2[C@H]1Cc1ccc(O)c(O)c1-3 [Apomorphine hydrochloride] | soluble | high | low | moderate | moderate | low | improvement in sexual function | dizziness, yawning, somnolence, rhinorrhea, sweating, flushing, pallor, hallucinations, edema, and chest pain | 31 | 11 | 10 to 15 | moderate
